Experimental data from patent US20260226031A1, “NOVEL COMPOUNDS” (NRG THERAPEUTICS LTD., priority 2023, published 2026).

Experiments:
mPTP [1] = test: mPTP activity (Ca2+ retention) assay in isolated rat brain mitochondria; format: biochemical; conditions: isolated rat brain mitochondria; Fluo5N fluorescence at 10 min after Ca2+ (75 μM) bolus
How it was run: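 Mitochondria freshly isolated from brains of perfused female Sprague Dawley rats, digitonin-treated, in pH 7.4 mannitol/MOPS/KCl buffer with pyruvate, malate, ADP and oligomycin A. Incubated with compound 10 min at RT with 2 μM Fluo5N. Fluorescence then read every 3 s for 10 min.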

mPTP [2] = test: mPTP activity (Ca2+ retention) assay in isolated rat liver mitochondria; format: biochemical; conditions: isolated rat liver mitochondria; Fluo5N fluorescence at 10 min after CaCl2 (75 μM) bolus; DMSO 0%, 5 μM cyclosporin A 100% inhibition
How it was run: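 Freshly isolated female Sprague Dawley rat liver mitochondria with succinate, rotenone and Fluo5N were preincubated 10 min at RT with compounds (final 30 μM to 1 nM), then challenged with CaCl2. Fluorescence at 10 min gave % inhibition versus DMSO (0%) and 5 μM cyclosporin A (100%); pIC50 calculated.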

| mPTP Rat brain pIC50 (mPTP [1]) | mPTP Rat liver pIC50* (mPTP [2]) | SMILES |
| --- | --- | --- |
| 7.11 | 5.95 | O=C(c1cncc(=O)[nH]1)N1CC(c2ccccc2F)C2(CCC2)C1 (centres unmarked) [Example 7, 6-(8-(2-fluorophenyl)-6-azaspiro[3.4]octane-6-carbonyl)pyrazin-2(1H)-one] |
| <4.52 | <4.52 | O=C(c1noc(=O)[nH]1)N1CC(c2ccc(F)cc2)C2(CCC2)C1 (single isomer, unassigned) [Example 41b, 3-(8-(4-fluorophenyl)-6-azaspiro[3.4]octane-6-carbonyl)-1,2,4-oxadiazol-5(4H)-one] |
| 7 | 5.75 | O=C(c1noc(=O)[nH]1)N1CC(c2ccc(F)c(F)c2)C2(CCC2)C1 (single isomer, unassigned) [Example 47a, 3-(8-(3,4-difluorophenyl)-6-azaspiro[3.4]octane-6-carbonyl)-1,2,4-oxadiazol-5(4H)-one] |
| 7.45 | 6.15 | O=C(c1cncc(=O)[nH]1)N1CC(c2ccc(F)c(F)c2)C2(CCC2)C1 (single isomer, unassigned) [Example 45a, 6-(8-(3,4-difluorophenyl)-6-azaspiro[3.4]octane-6-carbonyl)pyrazin-2(1H)-one] |
| 6.97 | 6.04 | CC1(C)CN(C(=O)c2cncc(=O)[nH]2)CC1c1ccccc1 (centres unmarked) [Example 8, 6-(3,3-dimethyl-4-phenylpyrrolidine-1-carbonyl)pyrazin-2(1H)-one] |
| <4.52 | 4.97 | O=C(c1cncc(=O)[nH]1)N1CC(c2cccc(F)c2)C2(CCC2)C1 (single isomer, unassigned) [Example 40b, 6-(8-(3-fluorophenyl)-6-azaspiro[3.4]octane-6-carbonyl)pyrazin-2(1H)-one] |
| <4.52 | <4.52 | O=C(c1cncc(=O)[nH]1)N1CC(c2cc(Cl)ccc2F)C2(CCC2)C1 (single isomer, unassigned) [Example 32b] |
| <4.52 | <4.52 | O=C(c1noc(=O)[nH]1)N1CC(c2ccc(F)cc2F)C2(CCC2)C1 (single isomer, unassigned) [Example 48b, 3-(8-(2,4-difluorophenyl)-6-azaspiro[3.4]octane-6-carbonyl)-1,2,4-oxadiazol-5(4H)-one] |
| 5.69 | 4.94 | O=C(c1cncc(=O)[nH]1)N1CC(c2cccc(F)c2F)C2(CCC2)C1 (single isomer, unassigned) [Example 43b, 6-(8-(2,3-difluorophenyl)-6-azaspiro[3.4]octane-6-carbonyl)pyrazin-2(1H)-one] |
| 4.81 | <4.52 | CCC1CN(C(=O)c2cncc(=O)[nH]2)CC1c1ccccc1 (single isomer, unassigned) [Example 15b, 6-(3-ethyl-4-phenylpyrrolidine-1-carbonyl)pyrazin-2(1H)-one] |
| 6.54 | 5.68 | O=C(c1nccc(=O)[nH]1)N1CC(c2ccccc2)C2(CC(F)C2)C1 (single isomer, unassigned) [Example 25c, 2-(2-fluoro-8-phenyl-6-azaspiro[3.4]octane-6-carbonyl)pyrimidin-4(3H)-one] |
| 4.64 | <4.52 | N#Cc1ccc(C2CN(C(=O)c3cncc(=O)[nH]3)CC23CCC3)cc1 (single isomer, unassigned) [Example 20a, 4-[6-(6-oxo-1H-pyrazine-2-carbonyl)-6-azaspiro[3.4]octan-8-yl]benzonitrile] |
| 7.34 | 6.55 | O=C(c1cncc(=O)[nH]1)N1CC(c2cccc(F)c2)C2(CCC2)C1 (single isomer, unassigned) [Example 40a, 6-(8-(3-fluorophenyl)-6-azaspiro[3.4]octane-6-carbonyl)pyrazin-2(1H)-one] |
| 7.19 | 5.87 | O=C(c1cncc(=O)[nH]1)N1CC(c2cc(Cl)ccc2F)C2(CCC2)C1 (single isomer, unassigned) [Example 32a] |
| <4.52 | <4.52 | O=C(c1cncc(=O)[nH]1)N1CC(c2ccccc2)C2(CCCC2)C1 (single isomer, unassigned) [Example 17b, 6-[4-phenyl-2-azaspiro[4.4]nonane-2-carbonyl]-1H-pyrazin-2-one] |
| 7.32 | 5.77 | O=C(c1cncc(=O)[nH]1)N1CC(c2cccc(Cl)c2F)C2(CCC2)C1 (single isomer, unassigned) [Example 33a, 6-(8-(3-chloro-2-fluorophenyl)-6-azaspiro[3.4]octane-6-carbonyl)pyrazin-2(1H)-one] |
| <4.52 | <4.52 | O=C(c1noc(=O)[nH]1)N1CC(c2ccccc2)C2(CCC2)C1 (single isomer, unassigned) [Example 34b, 3-(8-phenyl-6-azaspiro[3.4]octane-6-carbonyl)-1,2,4-oxadiazol-5(4H)-one] |
| <4.52 | <4.52 | O=C(c1nccc(=O)[nH]1)N1CC(c2ccccc2)C2(CC(F)C2)C1 (single isomer, unassigned) [Example 25d, 2-(2-fluoro-8-phenyl-6-azaspiro[3.4]octane-6-carbonyl)pyrimidin-4(3H)-one] |
| <4.52 | <4.52 | O=C(c1cncc(=O)[nH]1)N1CC(c2ccc(F)cc2F)C2(CCC2)C1 (single isomer, unassigned) [Example 37b, 6-(8-(2,4-difluorophenyl)-6-azaspiro[3.4]octane-6-carbonyl)pyrazin-2(1H)-one] |
| 6.7 | 6.12 | O=C(c1cc(O)no1)N1CC(c2ccccc2)C2(CCC2)C1 (centres unmarked) [Example 22, (3-hydroxyisoxazol-5-yl)(8-phenyl-6-azaspiro[3.4]octan-6-yl)methanone] |
| <4.52 | <4.52 | O=C(c1ccnc(=O)[nH]1)N1CC(c2ccccc2)C2(CCC2)C1 (single isomer, unassigned) [Example 27b, 6-(8-phenyl-6-azaspiro[3.4]octane-6-carbonyl)pyrimidin-2(1H)-one] |
| 6.1 | 5.27 | CCC1CN(C(=O)c2cncc(=O)[nH]2)CC1c1ccccc1 (single isomer, unassigned) [Example 15a, 6-(3-ethyl-4-phenylpyrrolidine-1-carbonyl)pyrazin-2(1H)-one] |
| 7.37 | 5.57 | O=C(c1noc(=O)[nH]1)N1CC(c2ccccc2)C2(CCC2)C1 (single isomer, unassigned) [Example 34a, 3-(8-phenyl-6-azaspiro[3.4]octane-6-carbonyl)-1,2,4-oxadiazol-5(4H)-one] |

| SMILES | mPTP Rat brain pIC50 (mPTP [1]) | mPTP Rat liver pIC50* (mPTP [2]) |
| --- | --- | --- |
| O=C(c1nccc(=O)[nH]1)N1CC(c2ccccc2)C2(CCC2)C1 (racemic) [Example 18, rac-2-{8-phenyl-6-azaspiro[3.4]octane-6-carbonyl}-3H-pyrimidin-4-one] | 6.56 | 5.52 |
| O=C(c1nccc(=O)[nH]1)N1CC(c2ccccc2)C2(CCC2)C1 (single isomer, unassigned) [Example 21b, 2-[8-phenyl-6-azaspiro[3.4]octane-6-carbonyl]-3H-pyrimidin-4-one] | <4.52 | <4.52 |
